Drawing on PubChem BioAssay (NCI), this text covers TGI and GI50 for eight compounds.

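Results reflect a 48-hour exposure of cells in 96-well plates to compound at five concentrations. Abbreviation: GI50, concentration required for 50% inhibition of growth. TGI marks complete inhibition of growth.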 Some results are limits rather than exact numbers.

Test systems include BT-549 breast; HCT-15 colon; MALME-3M melanoma; MDA-MB-435; NCI-H226 lung; NCI-H460 lung; NCI-H522 lung; SF-295 CNS; U251 CNS; PC-3 prostate.
Common to all, as to experiment: NCI tumour cell line growth inhibition, 48 h

With `O=C1C(CO)=C[C@@H](O)[C@H]2O[C@@H]12`, the TGI in the test on BT-549 breast was over 100 µM; with HCT-15 colon, over 100 µM; with MALME-3M melanoma, over 100 µM; in the test with MDA-MB-435, 78.6 µM; in the test on NCI-H226 lung, over 100 µM; in the test with NCI-H460 lung, over 100 µM. In addition, the TGI in the test on NCI-H522 lung, in the test on SF-295 CNS and in the test with U251 CNS was over 100 µM each time.

Turning to `COC(=O)c1ccc(NC(N)=NCC(C)(C)COc2ccc(C(F)(F)F)cc2)nc1`, the GI50 with HCT-15 colon was 1.56 µM; in the test with MALME-3M melanoma, 1.72 µM; in the test with NCI-H460 lung it was 1.67 µM; with NCI-H522 lung it was 1.6 µM; in the test with PC-3 prostate it was 1.38 µM; in the test on SF-295 CNS it was 1.61 µM. Moreover, in the test with U251 CNS, the GI50 is 1.61 µM. Besides, the TGI in the test on HCT-15 colon came out at 3.08 µM; with MALME-3M melanoma, 3.48 µM; with NCI-H460 lung, 3.36 µM; with NCI-H522 lung, 3.23 µM; in the test with PC-3 prostate, 2.75 µM; in the test with SF-295 CNS, 3.04 µM. For the same compound, in the test with U251 CNS, the TGI was 3.05 µM.

On to `NC(=NCCO)c1ccc(N2CCCN(c3ccc(C(N)=NCCO)cc3)CC2)cc1`, for which the GI50 was over 100 µM in the test on HCT-15 colon; 72.9 µM with MALME-3M melanoma; over 100 µM with MDA-MB-435; over 100 µM in the test with NCI-H226 lung; over 100 µM with SF-295 CNS; over 100 µM in the test with U251 CNS. Besides, the TGI in the test with HCT-15 colon, with MALME-3M melanoma, in the test with MDA-MB-435, in the test on NCI-H226 lung, in the test with SF-295 CNS and in the test with U251 CNS was over 100 µM in each case.

For the compound `O=c1oc2c(cc1-c1ccccc1)C(O)Oc1ccccc1-2` (centres undefined), the GI50 with BT-549 breast is 17.4 µM; in the test on HCT-15 colon, 5.04 µM; in the test on MALME-3M melanoma, 9.19 µM; in the test on MDA-MB-435, 1.62 µM; in the test with NCI-H226 lung, 28.8 µM; with NCI-H460 lung it was 4.12 µM. The GI50 in the test with NCI-H522 lung is 4.97 µM; in the test with SF-295 CNS, 8.79 µM; in the test with U251 CNS it was 7.92 µM. Moreover, the TGI in the test on BT-549 breast is over 100 µM; in the test on HCT-15 colon, over 100 µM; in the test on MALME-3M melanoma, 58.5 µM; with MDA-MB-435, over 100 µM; with NCI-H226 lung it was over 100 µM; in the test on NCI-H460 lung, over 100 µM. Further, the TGI is 21.2 µM with NCI-H522 lung, 97.1 µM in the test with SF-295 CNS and over 100 µM with U251 CNS.

For `COC(=O)[C@@H]1[C@H](O)[C@H](C)[C@H](O)[C@H](C)/C=C\C=C(C)C(=O)Nc2c(C)c(OC(C)=O)c3c(c2O)C(=O)C(C)=C2OCOC(=C23)C(C)=C[C@@](C)(O)[C@H](O)[C@@H](C)[C@H]1OC(C)=O`, the TGI in the test with BT-549 breast, in the test on MALME-3M melanoma, in the test with NCI-H226 lung, with PC-3 prostate, in the test with SF-295 CNS and in the test with U251 CNS was over 100 µM throughout.

In the case of `CC(=O)Oc1ccccc1C(=O)NCCC[Se]C#N`, the GI50 in the test on HCT-15 colon is 2.08 µM; with MALME-3M melanoma, 1.72 µM; in the test with MDA-MB-435 it was 2.19 µM; in the test on NCI-H226 lung, 2.06 µM; with NCI-H460 lung, 1.69 µM; in the test with NCI-H522 lung, 1.62 µM. The GI50 is 1.93 µM with PC-3 prostate, 1.89 µM in the test with SF-295 CNS and 1.6 µM in the test on U251 CNS. The TGI with HCT-15 colon is 5.06 µM; in the test on MALME-3M melanoma, 3.62 µM; in the test with MDA-MB-435, 5.16 µM; in the test on NCI-H226 lung it was 5.62 µM; in the test with NCI-H460 lung it was 4.52 µM; in the test on NCI-H522 lung, 3.5 µM. Further, the figures for the TGI in the test with PC-3 prostate, in the test on SF-295 CNS and with U251 CNS were 5.47 µM, 3.67 µM and 2.95 µM, respectively.

On to `COc1cc2c(c(OC)c1OC)C(=O)c1c-2n(CCCN=[N+]=[N-])c(=O)c2cc([N+](=O)[O-])ccc12`, for which the GI50 is 27.3 µM in the test on BT-549 breast; over 100 µM in the test on HCT-15 colon; over 100 µM in the test on MDA-MB-435; over 100 µM in the test with NCI-H226 lung; 58.2 µM with NCI-H460 lung; 16.9 µM in the test on NCI-H522 lung. Also, the GI50 is 71.2 µM with SF-295 CNS and 58 µM in the test on U251 CNS. Also, the TGI in the test with BT-549 breast was over 100 µM; with HCT-15 colon, over 100 µM; in the test on MDA-MB-435 it was over 100 µM; with NCI-H226 lung it was over 100 µM; in the test on NCI-H460 lung, over 100 µM; in the test with NCI-H522 lung, 79.3 µM. Besides, the TGI in the test on SF-295 CNS and in the test on U251 CNS was over 100 µM each time.

As to `O=C(Nc1cc(C(F)(F)F)cc(C(F)(F)F)c1)Nc1ccc(OCc2nnc(-c3ccc(Cl)cc3)o2)c(F)c1`, the GI50 with HCT-15 colon is 1.99 µM; in the test with MALME-3M melanoma, 2.3 µM; in the test on MDA-MB-435, 2.6 µM; in the test with NCI-H226 lung it was 2.93 µM; in the test on NCI-H460 lung, 2 µM; in the test on PC-3 prostate, 0.668 µM. Further, the GI50 in the test with SF-295 CNS is 1.14 µM; in the test with U251 CNS it was 1.49 µM. Further, the TGI with HCT-15 colon came to 14 µM; in the test with MALME-3M melanoma, 6.27 µM; with MDA-MB-435, 9.78 µM; in the test on NCI-H226 lung, 12.5 µM; in the test with NCI-H460 lung, 7.65 µM; with PC-3 prostate, 11.2 µM. For the same compound, the TGI in the test with SF-295 CNS amounted to 6.91 µM; with U251 CNS, 3.24 µM.
